{"source": "ChEMBL document CHEMBL6153040", "about": "“Discovery of the salicylaldehyde-based compound DDO-02267 as a lysine-targeting covalent inhibitor of ALKBH5” (Eur J Med Chem, 2025)", "key": {"[1]": {"molecular_target": "T1, Alpha-ketoglutarate-dependent dioxygenase FTO (Homo sapiens, UniProt Q9C0B1)", "assay": "Inhibition of FTO (32 to 505 residues) (unknown origin) extracted from Escherichia coli BL21 (DE3) cells by fluorescence polarization assay"}, "MOLM-13 [2]": {"tested_on": "MOLM-13", "assay": "Induction of apoptosis in human MOLM-13 cells assessed as late apoptotic cells at 40 uM incubated for 72 hrs by Annexin V FITC/PI staining based flow cytometry analysis (reference value: 4.28 %)", "format": "functional"}, "[3]": {"molecular_target": "T1, Alpha-ketoglutarate-dependent dioxygenase FTO", "assay": "Induction of thermal stabilization of FTO (32 to 505 residues) (unknown origin) extracted from Escherichia coli BL21 (DE3) cells assessed as change in melting temperature by thermal shift assay"}, "RNA demethylase ALKBH5 [4]": {"molecular_target": "T2, RNA demethylase ALKBH5 (Homo sapiens, UniProt Q6P6C2)", "assay": "Inhibition of ALKBH5 in human MV4-11 cells assessed as increase in m6A methylation levels by dot blot assay", "format": "cell-based"}, "RNA demethylase ALKBH5 [5]": {"molecular_target": "T2, RNA demethylase ALKBH5", "assay": "Potency index, ratio of 2-(((2-nitrophenyl)sulfonyl)carbamoyl)isonicotinic acid IC50 to test compound IC50 for inhibition of ALKBH5 (66 to 292 residues) (unknown origin) extracted from Escherichia coli BL21 (DE3) cells using m6A ssDNA as substrate measured after 1 hrs by fluorescence polarization assay"}, "[6]": {"assay": "Selectivity ratio of IC50 for FTO (32 to 505 residues) (unknown origin) extracted from Escherichia coli BL21 (DE3) cells to IC50 for ALKBH5 (66 to 292 residues) (unknown origin) extracted from Escherichia coli BL21 (DE3) cells by restriction enzyme digestion assay"}, "RNA demethylase ALKBH5 [7]": {"molecular_target": "T2, RNA demethylase ALKBH5", "assay": "Inhibition of ALKBH5 (66 to 292 residues) (unknown origin) extracted from Escherichia coli BL21 (DE3) cells using m6A ssDNA as substrate measured after 2 hrs by fluorescence polarization assay"}, "RNA demethylase ALKBH5 [8]": {"molecular_target": "T2, RNA demethylase ALKBH5", "assay": "Inhibition of ALKBH5 (66 to 292 residues) (unknown origin) extracted from Escherichia coli BL21 (DE3) cells using m6A ssDNA as substrate assessed as maximum inactivation rate constant (Kinact) measured after 6 hrs by fluorescence polarization assay"}, "[9]": {"molecular_target": "T1, Alpha-ketoglutarate-dependent dioxygenase FTO", "assay": "Binding affinity to FTO (32 to 505 residues) (unknown origin) extracted from Escherichia coli BL21 (DE3) cells assessed as dissociation constant by ITC assay"}, "MOLM-13 [10]": {"tested_on": "MOLM-13", "assay": "Induction of cell cycle arrest in human MOLM-13 cells assessed as accumulation of cells at G0/G1 phase at 40 uM incubated for 72 hrs by flow cytometry analysis (reference value: 65.53 %)", "format": "functional"}, "RNA demethylase ALKBH5 [11]": {"molecular_target": "T2, RNA demethylase ALKBH5", "assay": "Binding affinity to ALKBH5 (66 to 292 residues) (unknown origin) extracted from Escherichia coli BL21 (DE3) cells assessed as dissociation constant incubated for 3 hrs by MST analysis"}, "RNA demethylase ALKBH5 [12]": {"molecular_target": "T2, RNA demethylase ALKBH5", "assay": "Inhibition of ALKBH5 (66 to 292 residues) (unknown origin) extracted from Escherichia coli BL21 (DE3) cells using m6A ssDNA as substrate measured after 180 mins by fluorescence polarization assay"}, "MOLM-13 [13]": {"tested_on": "MOLM-13", "assay": "Induction of cell cycle arrest in human MOLM-13 cells assessed as accumulation of cells at S phase at 40 uM incubated for 72 hrs by flow cytometry analysis (reference value: 17.47 %)", "format": "functional"}, "MOLM-13 [14]": {"tested_on": "MOLM-13", "assay": "Induction of apoptosis in human MOLM-13 cells assessed as early apoptotic cells at 80 uM incubated for 72 hrs by Annexin V FITC/PI staining based flow cytometry analysis (reference value: 4.32%)", "format": "functional"}, "RNA demethylase ALKBH5 [15]": {"molecular_target": "T2, RNA demethylase ALKBH5", "assay": "Inhibition of ALKBH5 (66 to 292 residues) (unknown origin) extracted from Escherichia coli BL21 (DE3) cells using m6A ssDNA as substrate measured after 40 mins by fluorescence polarization assay"}, "[16]": {"assay": "Selectivity ratio of IC50 for ALKBH3 (unknown origin) to IC50 for ALKBH5 (66 to 292 residues) (unknown origin) extracted from Escherichia coli BL21 (DE3) cells by restriction enzyme digestion assay"}, "RNA demethylase ALKBH5 [17]": {"molecular_target": "T2, RNA demethylase ALKBH5", "assay": "Inhibition of ALKBH5 (66 to 292 residues) (unknown origin) extracted from Escherichia coli BL21 (DE3) cells using m6A ssDNA as substrate incubated for 2 hrs by TBE-PAGE based restriction enzyme digestion assay"}, "RNA demethylase ALKBH5 [18]": {"molecular_target": "T2, RNA demethylase ALKBH5", "assay": "Covalent binding affinity to ALKBH5 (66 to 292 residues) (unknown origin) extracted from Escherichia coli BL21 (DE3) cells at Lys132 residue by HPLC-MS/MS analysis"}, "RNA demethylase ALKBH5 [19]": {"molecular_target": "T2, RNA demethylase ALKBH5", "assay": "Inhibition of ALKBH5 (66 to 292 residues) (unknown origin) extracted from Escherichia coli BL21 (DE3) cells using m6A ssDNA as substrate assessed as Kinact/Ki ratio measured after 6 hrs by fluorescence polarization assay"}, "RNA demethylase ALKBH5 [20]": {"molecular_target": "T2, RNA demethylase ALKBH5", "assay": "Inhibition of ALKBH5 (66 to 292 residues) (unknown origin) extracted from Escherichia coli BL21 (DE3) cells using m6A ssDNA as substrate measured after 6 hrs by fluorescence polarization assay"}, "RNA demethylase ALKBH5 [21]": {"molecular_target": "T2, RNA demethylase ALKBH5", "assay": "Time-dependent inhibition of ALKBH5 (66 to 292 residues) (unknown origin) demethylation activity extracted from Escherichia coli BL21 (DE3) cells using m6A ssDNA as substrate at 1 to 10 uM by TBE-PAGE based restriction enzyme digestion assay", "conditions": "dose 1-10 µM, time 0.5-2 hrs"}, "[22]": {"assay": "Selectivity ratio of IC50 for FTO (32 to 505 residues) (unknown origin) extracted from Escherichia coli BL21 (DE3) cells to IC50 for ALKBH5 (66 to 292 residues) (unknown origin) extracted from Escherichia coli BL21 (DE3) cells by fluorescence polarization assay"}, "RNA demethylase ALKBH5 [23]": {"molecular_target": "T2, RNA demethylase ALKBH5", "assay": "Inhibition of ALKBH5 (66 to 292 residues) (unknown origin) extracted from Escherichia coli BL21 (DE3) cells using m6A ssDNA as substrate assessed as inactivation constant (Ki) measured after 6 hrs by fluorescence polarization assay"}, "RNA demethylase ALKBH5 [24]": {"molecular_target": "T2, RNA demethylase ALKBH5", "assay": "Induction of thermal stabilization of wild type ALKBH5 (66 to 292 residues) (unknown origin) extracted from Escherichia coli BL21 (DE3) cells assessed as melting temperature by thermal shift assay (reference value: 47.30 degreeC)"}, "MOLM-13 [25]": {"tested_on": "MOLM-13", "assay": "Downregulation of AXL protein expression levels in human MOLM-13 cells at 20 to 80 uM incubated for 72 hrs by Western blot analysis", "format": "functional, cell-based", "conditions": "dose 20-80 µM"}, "[26]": {"tested_on": "RNA demethylase ALKBH5 (Homo sapiens), Q6P6C2 [K132E]", "sequence (Q6P6C2 whole entry K132E, the tested form may be a part)": "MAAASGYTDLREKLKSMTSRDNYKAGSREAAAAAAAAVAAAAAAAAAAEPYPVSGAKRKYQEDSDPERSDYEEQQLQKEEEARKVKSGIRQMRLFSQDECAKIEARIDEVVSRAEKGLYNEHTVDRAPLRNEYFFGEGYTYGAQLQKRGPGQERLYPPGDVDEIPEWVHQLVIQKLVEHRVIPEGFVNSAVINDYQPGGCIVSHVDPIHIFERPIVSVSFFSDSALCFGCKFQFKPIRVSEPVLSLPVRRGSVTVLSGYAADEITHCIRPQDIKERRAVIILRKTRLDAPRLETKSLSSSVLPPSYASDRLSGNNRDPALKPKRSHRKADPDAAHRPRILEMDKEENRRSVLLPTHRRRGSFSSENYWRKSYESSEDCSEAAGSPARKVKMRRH", "assay": "Induction of thermal stabilization of ALKBH5 K132E mutant (66 to 292 residues) (unknown origin) extracted from Escherichia coli BL21 (DE3) cells assessed as change in melting temperature by thermal shift assay"}, "[27]": {"molecular_target": "T3, Alpha-ketoglutarate-dependent dioxygenase alkB homolog 3 (Homo sapiens, UniProt Q96Q83)", "T3 sequence (Q96Q83 whole entry)": "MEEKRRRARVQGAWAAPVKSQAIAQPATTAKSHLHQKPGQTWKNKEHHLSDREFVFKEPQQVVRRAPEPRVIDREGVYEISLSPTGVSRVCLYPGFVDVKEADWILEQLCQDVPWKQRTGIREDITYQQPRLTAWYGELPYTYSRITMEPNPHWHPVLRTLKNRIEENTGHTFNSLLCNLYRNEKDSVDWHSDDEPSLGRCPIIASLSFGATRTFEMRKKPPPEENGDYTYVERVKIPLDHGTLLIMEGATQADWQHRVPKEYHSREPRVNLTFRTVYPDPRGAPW", "assay": "Inhibition of ALKBH3 (unknown origin) by fluorescence polarization assay"}}, "note": "Calls of active or inactive are those of the source. The rule behind the calls is not given here."}
{"smiles": "O=Cc1cc(S(=O)(=O)NC(=O)c2cc(C(=O)O)ccn2)c2ccccc2c1O", "values": [{"measurement": "IC50", "setting": "[1]", "value": 14200, "unit": "nM"}, {"measurement": "Activity", "setting": "MOLM-13 [2]", "value": 4.62, "unit": "%"}, {"measurement": "ΔTm", "setting": "[3]", "value": "< 1", "unit": "°C"}, {"measurement": "inhibition", "setting": "RNA demethylase ALKBH5 [4]", "value": "Active"}, {"measurement": "Ratio IC50", "setting": "RNA demethylase ALKBH5 [5]", "value": 287}, {"measurement": "Ratio IC50", "setting": "[6]", "value": 10}, {"measurement": "IC50", "setting": "RNA demethylase ALKBH5 [7]", "value": 350, "unit": "nM"}, {"measurement": "Kinact", "setting": "RNA demethylase ALKBH5 [8]", "value": 14.2, "unit": "min⁻¹"}, {"measurement": "Kd", "setting": "[9]", "value": 27600, "unit": "nM"}, {"measurement": "Activity", "setting": "MOLM-13 [10]", "value": 68.23, "unit": "%"}, {"measurement": "Kd", "setting": "RNA demethylase ALKBH5 [11]", "value": 1030, "unit": "nM"}, {"measurement": "IC50", "setting": "RNA demethylase ALKBH5 [12]", "value": 280, "unit": "nM"}, {"measurement": "Activity", "setting": "MOLM-13 [13]", "value": 5.67, "unit": "%"}, {"measurement": "Activity", "setting": "MOLM-13 [14]", "value": 9.16, "unit": "%"}, {"measurement": "IC50", "setting": "RNA demethylase ALKBH5 [15]", "value": 580, "unit": "nM"}, {"measurement": "Ratio IC50", "setting": "[16]", "value": 30}, {"measurement": "IC50", "setting": "RNA demethylase ALKBH5 [17]", "value": 2530, "unit": "nM"}, {"measurement": "Activity", "setting": "RNA demethylase ALKBH5 [18]", "value": "Active"}, {"measurement": "Ratio", "setting": "RNA demethylase ALKBH5 [19]", "value": 0.03, "unit": "µM⁻¹ min⁻¹"}, {"measurement": "IC50", "setting": "RNA demethylase ALKBH5 [20]", "value": 170, "unit": "nM"}, {"measurement": "TDI", "setting": "RNA demethylase ALKBH5 [21]", "value": "Active"}, {"measurement": "Ratio IC50", "setting": "[22]", "value": 20}, {"measurement": "Ki", "setting": "RNA demethylase ALKBH5 [23]", "value": 410, "unit": "nM"}, {"measurement": "Tm", "setting": "RNA demethylase ALKBH5 [24]", "value": 49.9, "unit": "°C"}, {"measurement": "Activity", "setting": "MOLM-13 [25]", "value": "Active"}, {"measurement": "ΔTm", "setting": "[26]", "value": "< 1", "unit": "°C"}, {"measurement": "IC50", "setting": "[27]", "value": 11700, "unit": "nM"}]}
